# Source: paper PMC9919311, “Catechol-O-methyltransferase Inhibitors from Calendula officinalis Leaf” (Molecules, 2023)
# Where two headings read alike, the source gives them in different places.
# What was measured:
# Recombinant human COMT = biological target: T1, Recombinant human COMT (Homo sapiens, UniProt P21964); assay: COMT inhibitory assay (3-BTD fluorescent substrate); format: biochemical
# T1 construct: made in house
# T1 sequence (P21964 1-271): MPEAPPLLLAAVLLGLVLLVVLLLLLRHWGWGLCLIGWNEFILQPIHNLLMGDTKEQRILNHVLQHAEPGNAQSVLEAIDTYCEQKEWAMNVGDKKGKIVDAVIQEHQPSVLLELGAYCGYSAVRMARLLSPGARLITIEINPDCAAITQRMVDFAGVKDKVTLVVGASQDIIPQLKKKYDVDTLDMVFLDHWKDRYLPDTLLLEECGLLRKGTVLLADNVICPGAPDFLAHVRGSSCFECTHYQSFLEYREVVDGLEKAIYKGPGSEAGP
# [1] = cited from earlier work
# [2] = 1 µM COMT, 200 µM SAM, 20 µM 3-BTD, 0–100 µM inhibitor, pH 7.5, 37 °C, read-out: COMT inhibitory activities (IC50)
IC50 (Recombinant human COMT; [2]),Structure (SMILES),also measured
55 µM,"COc1cc(-c2oc3cc(O)cc(O)c3c(=O)c2O[C@@H]2O[C@H](CO)[C@@H](O)[C@H](O)[C@H]2O)ccc1O [Compound 2, isorhamnetin 3-O-β-glucoside]",
,"CC1OC(OC2C(Oc3c(-c4ccc(O)c(O)c4)oc4cc(O)cc(O)c4c3=O)OC(CO)C(O)C2O)C(O)C(O)C1O (stereo not drawn) [Compound 3, quercetin 3-O-β-neohesperidoside]",IC50 (Recombinant human COMT): 71 µM
65 µM,"CC1OC(OC2C(Oc3c(-c4ccc(O)c(O)c4)oc4cc(O)cc(O)c4c3=O)OC(COC(=O)CC(=O)O)C(O)C2O)C(O)C(O)C1O (stereo not drawn) [Compound 4, quercetin 3-O-(2″-O-α-rhamnosyl-6″-O-malonyl)-β-glucoside]",
59 µM,"O=C(O)CC(=O)OC[C@H]1O[C@@H](Oc2c(-c3ccc(O)c(O)c3)oc3cc(O)cc(O)c3c2=O)[C@H](O)[C@@H](O)[C@@H]1O [Compound 5, quercetin 3-O-(6″-O-malonyl)-β-glucoside]",
42 µM,COC(=O)CC(=O)OC[C@H]1O[C@@H](Oc2c(-c3ccc(O)c(O)c3)oc3cc(O)cc(O)c3c2=O)[C@H](O)[C@@H](O)[C@@H]1O [Compound 6],
> 100 µM,"COc1cc(-c2oc3cc(O)cc(O)c3c(=O)c2O[C@@H]2O[C@H](COC(=O)CC(=O)O)[C@@H](O)[C@H](O)[C@H]2O)ccc1O [Compound 7, isorhamnetin 3-O-(6″-O-malonyl)-β-glucoside]",
100 µM,"O=C(/C=C/c1ccc(O)c(O)c1)O[C@@H]1C[C@](O)(C(=O)O)C[C@@H](O)[C@H]1O [Compound 8, chlorogenic acid]",
21 µM,"O=C(C=Cc1ccc(O)c(O)c1)OC1CC(O)(C(=O)O)CC(O)C1OC(=O)C=Cc1ccc(O)c(O)c1 (centres unmarked) [Compound 9, 3,4-dicaffeoylquinic acid]",COMT inhibitory activity (in words) (Recombinant human COMT; isolated compounds 1–10 compared): highest inhibitory activity
> 100 µM,"COc1cc(C(=O)O)cc(OC)c1O [Compound 10, syringic acid]",
,Cc1ccc(C(=O)c2cc(O)c(O)c([N+](=O)[O-])c2)cc1 [Tolcapone],hepatotoxicity [1]: severe hepatotoxicity
